# Results as given in ChEMBL document CHEMBL4680202, “Development, synthesis and biological investigation of a novel class of potent PC-PLC inhibitors” (Eur J Med Chem, 2020).
# System: Bacillus cereus
# Test: Inhibition of Bacillus cereus PC-PLC assessed as residual activity at 10 uM using phosphatidylcholine as substrate measured after 1 hr by horseradish peroxidase/alkaline phosphatase/choline oxidase-coupled amplex red reagent based fluorescence assay relative to control
row,Structure (SMILES),Activity [%]
1,Cc1ccccc1CNc1ccc(N2CCOCC2)cc1,2.2
2,CC(C)(C)OC(=O)N1CCN(c2ccc(NCc3ccccc3)cc2)CC1,42.3
3,Clc1ccccc1CNc1ccc(N2CCNCC2)cc1,31
4,CN1CCN(c2ccc(NCc3ccccc3O)cc2)CC1,13.4
5,CC(C)(C)OC(=O)N1CCN(c2ccc(NCc3ccccc3Cl)cc2)CC1,43.2
6,Brc1ccc(CNc2ccc(N3CCOCC3)cc2)cc1,18.1
7,COc1ccccc1CNc1ccc(N2CCCCC2)cc1,9.9
8,CN1CCN(c2ccc(NCc3ccc(O)cc3)cc2)CC1,9.4
9,CN1CCN(c2ccc(NCc3cccc(F)c3)cc2)CC1,44.2
10,Clc1ccc(CNc2ccc(N3CCNCC3)cc2)cc1,31.3
11,Fc1ccccc1CNc1ccc(N2CCNCC2)cc1,24.1
12,COc1ccc(CNc2ccc(N3CCOCC3)cc2)cc1,3.2
13,Cc1cccc(CNc2ccc(N3CCOCC3)cc2)c1,8.3
14,CN1CCN(c2ccc(NCc3ccccc3Br)cc2)CC1,20
15,CC(C)(C)OC(=O)N1CCN(c2ccc(NCc3ccc(F)cc3)cc2)CC1,68.3
16,CC(C)(C)OC(=O)N1CCN(c2ccc(NCc3cccc(F)c3)cc2)CC1,33.5
17,FC(F)(F)c1ccc(CNc2ccc(N3CCOCC3)cc2)cc1,27.6
18,Oc1ccccc1CNc1ccc(N2CCCCC2)cc1,14.8
19,CN1CCN(c2ccc(NCc3cccc(Cl)c3)cc2)CC1,19.5
20,CN1CCN(c2ccc(NCc3ccc(F)cc3)cc2)CC1,23.9

row,Structure (SMILES),Activity [%]
1,CC(C)(C)OC(=O)N1CCN(c2ccc(NCc3ccccc3F)cc2)CC1,29.4
2,Clc1ccccc1CNc1ccc(N2CCOCC2)cc1,7.9
3,FC(F)(F)c1cccc(CNc2ccc(N3CCOCC3)cc2)c1,23.4
4,Oc1ccccc1CNc1ccc(N2CCOCC2)cc1,0
5,Cc1ccc(CNc2ccc(N3CCOCC3)cc2)cc1,5.4
6,Cc1cc(C)c(CNc2ccc(N3CCOCC3)c(C(=O)O)c2)c(C)c1,45.3
7,Oc1cccc(CNc2ccc(N3CCCCC3)cc2)c1,7.6
8,Fc1cccc(CNc2ccc(N3CCNCC3)cc2)c1,26
9,Clc1ccccc1CNc1ccc(N2CCCCC2)cc1,22.6
10,CN1CCN(c2ccc(NCc3ccccc3Cl)cc2)CC1,29.7
11,Cc1ccccc1CNc1ccc(N2CCN(C)CC2)cc1,40.9
12,c1ccc(CNc2ccc(N3CCCCC3)cc2)cc1,8.1
13,CN1CCN(c2ccc(NCc3cccc(O)c3)cc2)CC1,12.7
14,CC(C)(C)OC(=O)N1CCN(c2ccc(NCc3cccc(Cl)c3)cc2)CC1,36.8
15,Clc1cccc(CNc2ccc(N3CCCCC3)cc2)c1,24.7
16,Fc1ccc(CNc2ccc(N3CCCCC3)cc2)cc1,6.6
17,Clc1ccc(CNc2ccc(N3CCOCC3)cc2)cc1,12.9
18,Brc1ccccc1CNc1ccc(N2CCCCC2)cc1,28
19,O=C(O)c1cc(NCc2cccc(Br)c2)ccc1N1CCOCC1,20.4
20,Fc1ccc(CNc2ccc(N3CCNCC3)cc2)cc1,21.1

row,Structure (SMILES),Activity [%]
1,CN1CCN(c2ccc(NCc3ccccc3F)cc2)CC1,42.7
2,Oc1cccc(CNc2ccc(N3CCOCC3)cc2)c1,3.4
3,FC(F)(F)c1ccccc1CNc1ccc(N2CCCCC2)cc1,49.3
4,Fc1ccc(CNc2ccc(N3CCOCC3)cc2)cc1,1.8
5,CN1CCN(c2ccc(NCc3ccccc3C(F)(F)F)cc2)CC1,25.4
6,CC(C)(C)OC(=O)N1CCN(c2ccc(NCc3ccc(O)cc3)cc2)CC1,23.9
7,Oc1ccc(CNc2ccc(N3CCNCC3)cc2)cc1,51.3
8,COc1cccc(CNc2ccc(N3CCOCC3)cc2)c1,5.6
9,Fc1cccc(CNc2ccc(N3CCCCC3)cc2)c1,10.7
10,Oc1cccc(CNc2ccc(N3CCNCC3)cc2)c1,30.9
11,COc1ccccc1CNc1ccc(N2CCN(C)CC2)cc1,29.3
12,CN1CCN(c2ccc(NCc3ccccc3)cc2)CC1,31.5
13,CN1CCN(c2ccc(NCc3ccc(Cl)cc3)cc2)CC1,16.6
14,COc1ccccc1CNc1ccc(N2CCN(C(=O)OC(C)(C)C)CC2)cc1,19.9
15,Cc1ccccc1CNc1ccc(N2CCCCC2)cc1,14.7
16,Cc1ccccc1CNc1ccc(N2CCNCC2)cc1,29.3
17,Cc1cc(C)c(CNc2ccc(N3CCOCC3)cc2)c(C)c1,28.9
18,Clc1cccc(CNc2ccc(N3CCNCC3)cc2)c1,27.4

# Next, values leading:
row,Activity [%],Structure (SMILES)
1,64.1,COC(=O)c1cc(NCc2cccc(C(F)(F)F)c2)ccc1N1CCOCC1
2,83,COC(=O)c1cc(NCc2ccccc2C(F)(F)F)ccc1N1CCOCC1
3,130,COC(=O)c1cc(NCc2cccc(Oc3ccccc3)c2)ccc1N1CCOCC1
4,40.1,O=C(O)c1cc(NCc2ccc(-c3ccccc3)cc2)ccc1N1CCOCC1
5,48.9,COC(=O)c1cc(NCc2ccc(F)cc2)ccc1N1CCOCC1
6,54.3,COC(=O)c1cc(NCc2ccc(C)cc2)ccc1N1CCOCC1
7,48.3,COC(=O)c1cc(NCc2ccc(O)cc2)ccc1N1CCOCC1
8,60.9,COC(=O)c1cc(NCc2cccc(Br)c2)ccc1N1CCOCC1
9,56.7,COC(=O)c1cc(NCc2ccccc2Br)ccc1N1CCOCC1
10,33.4,Cc1ccc(CNc2ccc(N3CCOCC3)c(C(=O)O)c2)cc1
11,47.5,O=C(O)c1cc(NCc2cccc(Oc3ccccc3)c2)ccc1N1CCOCC1
12,29.9,O=C(O)c1cc(NCc2ccccc2F)ccc1N1CCOCC1
13,58.9,COC(=O)c1cc(NCc2ccc(OC)cc2)ccc1N1CCOCC1
14,96.8,COC(=O)c1cc(NCc2c(C)cc(C)cc2C)ccc1N1CCOCC1
15,30.3,O=C(O)c1cc(NCc2ccc(F)cc2)ccc1N1CCOCC1
16,52.8,COC(=O)c1cc(NCc2cccc(O)c2)ccc1N1CCOCC1
17,43.7,COC(=O)c1cc(NCc2ccccc2OC)ccc1N1CCOCC1

row,Activity [%],Structure (SMILES)
1,35,Cc1ccccc1CNc1ccc(N2CCOCC2)c(C(=O)O)c1
2,56.8,COC(=O)c1cc(NCc2ccccc2F)ccc1N1CCOCC1
3,49.5,O=C(O)c1cc(NCc2cccc(F)c2)ccc1N1CCOCC1
4,32.5,COc1ccccc1CNc1ccc(N2CCOCC2)c(C(=O)O)c1
5,39.3,c1ccc(Oc2cccc(CNc3ccc(N4CCOCC4)cc3)c2)cc1
6,28.1,COc1cccc(CNc2ccc(N3CCOCC3)c(C(=O)O)c2)c1
7,0,c1ccc(CNc2ccc(N3CCOCC3)cc2)cc1
8,32.5,O=C(O)c1cc(NCc2ccccc2)ccc1N1CCOCC1
9,57.7,COC(=O)c1cc(NCc2ccccc2)ccc1N1CCOCC1
10,34.1,O=C(O)c1cc(NCc2ccccc2C(F)(F)F)ccc1N1CCOCC1
11,78.6,COC(=O)c1cc(NCc2ccc(C(F)(F)F)cc2)ccc1N1CCOCC1
12,77.3,COC(=O)c1cc(NCc2ccc(Br)cc2)ccc1N1CCOCC1
13,11.5,O=C(O)c1cc(NCc2ccccc2Cl)ccc1N1CCOCC1
14,43.8,O=C(O)c1cc(NCc2ccc(O)cc2)ccc1N1CCOCC1
15,40,O=C(O)c1cc(NCc2ccccc2O)ccc1N1CCOCC1
16,100,COC(=O)c1cc(NCc2ccc(-c3ccccc3)cc2)ccc1N1CCOCC1
17,32.3,COc1ccc(CNc2ccc(N3CCOCC3)c(C(=O)O)c2)cc1
